Assay results reported in US20230095428A1, “[6R]-MTHF IN 5-FU BASED CHEMOTHERAPY OF BRAF- OR KRAS-MUTATED COLORECTAL CANCER” (Isofol Medical AB, priority 2021, published 2023).

Tests used:
[1] = cited from earlier work; for pharmacokinetic comparison of leucovorin and levoleucovorin: in vivo
[2] = in vitro; cited from earlier work
[3] = test system: solid colorectal cancer tumors (mCRC, incl. BRAF- or KRAS-mutated); assay: Clinical study ISO-CC-005 (Phase I/IIa), safety extension cohorts and follow-up study: tumour response by CT, ORR per RECIST 1.1; format: in vivo, human; settings: 19 patients harbouring either mutated KRAS or BRAF; 16 weeks and beyond; 120 mg/m2 arfolitixorin
From the text: As used herein, the term ORR shall refer to the Objective Response Rate, i.e. the proportion of patients with a reduction in tumor burden of a predefined amount. […] (Note: the appearance of one or more new lesions is also considered progression). […] As used herein, the term best ORR shall refer to the best overall response rate as per RECIST guideline version 1.1 for the treatment period, where applicable. Arfolitixorin has been in development for a number of years and has been studied in several clinical studies. […] 2019. The completion of the study was announced in January 2020. In total, 105 patients were included in the study. Applicant completed the dose definition part of ISO-CC-005 in March 2018, which evaluated the safety and efficacy of arfolitixorin in patients with mCRC. Shortly after, applicant started two additional treatment groups in 2018 to generate more safety and efficacy data, i.e. the safety extension Cohort #18 (Treatment Arm #4) and Cohort #19 (Treatment Arm #6). The aim was to evaluate as many patients as possible from the additional treatment groups after a treatment period of 16 weeks+. On 30 Sep. […] The goal with the Dose-finding Part of the Main Study was to establish the Arfolitixorin dose level assessed as having the most favourable profile, i.e. the selected phase 2 dose (SP2D). […] Response was measured in short- and long-term assessments. […]

## Nc1nc2c(c(=O)[nH]1)N(C=O)[C@H](CNc1ccc(C(=O)N[C@@H](CCC(=O)O)C(=O)O)cc1)CN2 [d-LV]
[1]; kidneys
  excretion: slowly excreted by the kidneys

## Nc1nc(=O)c2c([nH]1)NC[C@H](CNc1ccc(C(=O)N[C@@H](CCC(=O)O)C(=O)O)cc1)N2C=O [1-LV]
[1]
  pharmacokinetic comparison of leucovorin and levoleucovorin: pharmacokinetically identical
[2]
  conversion to the biologically available methyl-tetrahydrofolate form: rapidly converted

## Nc1nc2c(c(=O)[nH]1)N1CN(c3ccc(C(=O)N[C@@H](CCC(=O)O)C(=O)O)cc3)C[C@H]1CN2 [[6R]-5,10-MTHF, [6R]-5,10-methylenetetrahydrofolate]
[3]
  best ORR: > 50%

## Nc1nc2c(c(=O)[nH]1)N(C=O)C(CNc1ccc(C(=O)N[C@@H](CCC(=O)O)C(=O)O)cc1)CN2 (some centres unmarked) [Leucovorin, 5-formyl tetrahydrofolic acid]
[1]
  pharmacokinetic comparison of leucovorin and levoleucovorin: pharmacokinetically identical
